The record followed here is ChEMBL document CHEMBL5576094, “A Diterpenoid of the Medicinal Plant Andrographis paniculata Targets Cutaneous TRPV3 Channel and Relieves Itch” (J Nat Prod, 2024).

Each structure is given as a SMILES string.

Experiment [1] deals with Mus musculus. Briefly: Antipruritic activity in histamine-induced scratching ICR mouse model assessed as number of scratching bouts at 10 mg/kg, po administered via gavage pretreated for 30 mins followed by histamine stimulation and measured for 30 mins (reference value: 123 +/- 6). Type of experiment: functional. The following applies: time 60 min, 1 h.
For experiment [2], the system named is Mus musculus. Briefly: Antipruritic activity in histamine-induced scratching ICR mouse model assessed as inhibition of neck scratching behavior at 10 mg/kg, po administered via gavage pretreated for 30 mins followed by histamine stimulation and measured for 30 mins relative to control. The following applies: 1 h, time 60 min. The experiment is classed as functional.

Experiment [3] is filed under the species Mus musculus. Briefly: Antipruritic activity in carvacrol-induced scratching C57BL/6 mouse model assessed as inhibition of neck scratching behavior at 300 uM, ID pretreated for 30 mins followed by carvacrol stimulation and measured for 30 mins relative to control. The experiment is classed as functional. The following applies: C57BL/6, 1 h, time 60 min.
Experiment [4] deals with T1, Transient receptor potential cation channel subfamily V member 3 (Homo sapiens, UniProt Q8NET8).
T1 sequence (Q8NET8 whole entry): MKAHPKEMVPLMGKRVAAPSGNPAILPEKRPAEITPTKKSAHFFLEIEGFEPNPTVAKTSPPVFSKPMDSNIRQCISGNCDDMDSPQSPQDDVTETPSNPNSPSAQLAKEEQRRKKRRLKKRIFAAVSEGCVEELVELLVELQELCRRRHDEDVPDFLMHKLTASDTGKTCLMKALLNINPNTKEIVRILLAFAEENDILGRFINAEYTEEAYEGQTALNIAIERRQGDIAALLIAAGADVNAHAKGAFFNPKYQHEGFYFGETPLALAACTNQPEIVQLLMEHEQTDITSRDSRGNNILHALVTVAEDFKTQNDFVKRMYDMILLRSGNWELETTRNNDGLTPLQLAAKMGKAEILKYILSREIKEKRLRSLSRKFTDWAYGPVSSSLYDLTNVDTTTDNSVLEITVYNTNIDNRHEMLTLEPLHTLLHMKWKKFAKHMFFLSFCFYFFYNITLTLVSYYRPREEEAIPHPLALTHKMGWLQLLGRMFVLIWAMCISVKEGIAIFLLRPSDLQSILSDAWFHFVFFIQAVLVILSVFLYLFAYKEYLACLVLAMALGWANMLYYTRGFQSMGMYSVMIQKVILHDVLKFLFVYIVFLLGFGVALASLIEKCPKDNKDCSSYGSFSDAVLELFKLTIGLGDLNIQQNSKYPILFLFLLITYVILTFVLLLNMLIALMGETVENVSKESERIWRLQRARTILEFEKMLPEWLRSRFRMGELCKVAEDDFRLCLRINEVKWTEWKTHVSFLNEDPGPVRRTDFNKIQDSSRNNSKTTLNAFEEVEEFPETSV
Briefly: Inhibition of human TRPV3 expressed in HEK293 cells assessed as reduction in 2-APB induced channel current at voltage ramp from -100 to +100 mV by whole-cell patch clamp electrophysiology. The experiment is classed as cell-based. In general terms: Patch clamp records ionic current or voltage across a cell membrane.

Experiment [5] is filed under the species Mus musculus. Briefly: Antipruritic activity in carvacrol-induced scratching C57BL/6 mouse model assessed as inhibition of neck scratching behavior at 30 uM, ID pretreated for 30 mins followed by carvacrol stimulation and measured for 30 mins relative to control. The experiment is classed as functional. The settings on record: C57BL/6, 1 h, time 60 min.
The species entered for experiment [6] is Mus musculus. Nature of the experiment: Antipruritic activity in histamine-induced scratching C57BL/6 mouse model assessed as inhibition of neck scratching behavior at 0.3 to 30 uM, ID pretreated for 30 mins followed by histamine stimulation and measured for 30 mins relative to control. Type of experiment: functional. The following applies: dose 0.3-30 µM, time 60 min, 1 h.

As to `CCOC(=O)N1CCC(=C2c3ccc(Cl)cc3CCc3cccnc32)CC1` [LORATADINE], in the experiment on Mus musculus [1], the Activity is recorded as 72. For the same compound, in the experiment on Mus musculus [2], the inhibition in vivo (usually the percentage by which the read-out fell short of the control) at 10 mg/kg was approximately 40%.
As to `C[C@@H]1O[C@@H](O[C@@H]2[C@@H](O)[C@H](OCCc3ccc(O)c(O)c3)O[C@H](CO[C@@H]3OC[C@](O)(CO)[C@H]3O)[C@H]2OC(=O)/C=C/c2ccc(O)c(O)c2)[C@H](O)[C@H](O)[C@H]1O`, in the experiment listed under Mus musculus [3], the inhibition in vivo at 300 µM amounted to 77%. Further, the half-maximal inhibitory concentration (IC50) (commonly the concentration that gives 50% inhibition) in experiment [4] worked out at 6.7 µM. Further, the inhibition in vivo at 30 µM in the experiment filed under Mus musculus [5] is approximately 56%. Besides, in the experiment listed under Mus musculus [6], the “inhibition (INH)” value was found to be 57%.
